US7442805B2, “Substituted sulfonamide-indoles” (Wyeth, priority 2003, dated 2008)

Legend:
[1] = biological target: T1, recombinant human plasminogen activator inhibitor-1 (PAI-1) (Homo sapiens, UniProt P05121); experiment: Primary screen for the PAI-1 inhibition (chromogenic tPA activity assay); assay type: biochemical; details: pH 6.6, 140 nM PAI-1, 70 nM tPA; for inhibition at 25 µM: 25 μM test compound; for inhibition at 10 µM: 10 μM test compound
T1 construct: purchased Molecular Innovations, Royal Oak, Mich
Description: Primary Screen for the PAI-1 Inhibition
Test compounds are dissolved in DMSO at a final concentration of 10 mM, then diluted 100× in physiologic buffer. The inhibitory assay is initiated by the addition of the test compound (1-100 μM final concentration, maximum DMSO concentration of 0.2%) in a pH 6.6 buffer containing 140 nM recombinant human plasminogen activator inhibitor-1 (PAI-1; Molecular Innovations, Royal Oak, Mich.). Following a 1 hour incubation at room temperature, 70 nM of recombinant human tissue plasminogen activator (tPA) is added, and the combination of the test compound, PAI-1 and tPA is incubated for an additional 30 minutes. Following the second incubation, Spectrozyme-tPA (American Diagnostica, Greenwich, Conn.), a chromogenic substrate for tPA, is added and absorbance read at 405 nm at 0 and 60 minutes. Relative PAI-1 inhibition is equal to the residual tPA activity in the presence of the test compound and PAI-1. Control treatments include the complete inhibition of tPA by PAI-1 at the molar ratio employed (2:1), and the absence of any effect of the test compound on tPA alone.

[2] = biological target: human PAI-1 (Homo sapiens, UniProt P05121); experiment: Assay for determining IC50 of inhibition of PAI-1 (tPA-coated plate, antibody detection of active PAI-1); assay type: binding; details: active PAI-1 bound to tPA-coated plate; pH 7.5
Description: Assay for determining IC50 of Inhibition of PAI-1
This assay is based upon the non-SDS dissociable interaction between tPA and active PAI-1. Assay plates are initially coated with human tPA (10 μg/ml). Test compounds of the present invention are dissolved in DMSO at 10 mM, then diluted with physiologic buffer (pH 7.5) to a final concentration of […]. Test compounds are incubated with human PAI-1 (50 ng/ml) for 15 minutes at room temperature. The tPA-coated plate is washed with a solution of 0.05% Tween 20 and 0.1% BSA, then the plate is blocked with a solution of 3% BSA. An aliquot of the substituted sulfonamide indole/PAI-1 solution is then added to the tPA-coated plate, incubated at room temperature for 1 hour, and washed. Active PAI-1 bound to the plate is assessed by adding an aliquot of a 1:1000 dilution of the 33B8 monoclonal antibody against human PAI-1, and incubating the plate at room temperature for 1 hour (Molecular Innovations, Royal Oak, Mich.). The plate is again washed, and a solution of goat anti-mouse IgG-alkaline phosphatase conjugate is added at a 1:50,000 dilution in goat serum. The plate is incubated 30 minutes at room temperature, washed, and a solution of alkaline phosphatase substrate is added. The plate is incubated 45 minutes at room temperature, and color development is determined at OD405 nm. The quantitation of active PAI-1 bound to tPA at varying concentrations of the test compound is used to determine the IC50. Results are analyzed using a logarithmic best-fit equation. The assay sensitivity is 5 ng/ml of human PAI-1 as determined from a standard curve ranging from 0-100 ng/ml.

Chain of human PAI-1 (P05121 24-402): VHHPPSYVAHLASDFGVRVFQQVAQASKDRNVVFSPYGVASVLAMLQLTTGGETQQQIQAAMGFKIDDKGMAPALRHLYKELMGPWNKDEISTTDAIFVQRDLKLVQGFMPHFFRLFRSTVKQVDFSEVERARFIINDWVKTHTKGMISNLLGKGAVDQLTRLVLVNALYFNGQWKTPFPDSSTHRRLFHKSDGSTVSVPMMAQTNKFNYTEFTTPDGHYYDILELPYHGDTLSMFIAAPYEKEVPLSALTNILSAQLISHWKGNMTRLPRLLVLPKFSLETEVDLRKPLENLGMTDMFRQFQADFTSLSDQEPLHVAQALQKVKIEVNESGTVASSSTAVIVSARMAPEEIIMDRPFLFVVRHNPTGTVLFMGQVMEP
T1 sequence (P05121 24-402): as above

SMILES	inhibition at 25 µM [1] [%]	inhibition at 10 µM [1] [%]	IC50 [2] [µM]
Cn1c(C(=O)O)c(-c2ccccc2)c2cc(NS(=O)(=O)c3ccc(OC(F)(F)F)cc3)ccc21 [Example 5, 1-methyl-3-phenyl-5-({[4-(trifluoromethoxy)phenyl]sulfonyl}amino)-1H-indole-2-carboxylic acid]	19		
CC(C)C[C@H](NC(=O)c1c(-c2ccccc2)c2cc(NS(=O)(=O)c3ccc(-c4ccccc4)cc3)ccc2n1C)C(=O)O [Example 10, N-({5-[(1,1′-biphenyl-4-ylsulfonyl)amino]-1-methyl-3-phenyl-1H-indol-2-yl}carbonyl)-L-leucine]	74	15	
O=C(O)c1c(-c2ccccc2)c2cc(NS(=O)(=O)c3ccc(-c4ccccc4)cc3)ccc2n1Cc1ccccc1 [Example 4, 1-benzyl-5-[(1,1′-biphenyl-4-ylsulfonyl)amino]-3-phenyl-1H-indole-2-carboxylic acid]	61	44	23
CC(C)(C)c1ccc(S(=O)(=O)Nc2ccc3c(c2)c(-c2ccccc2)c(C(=O)O)n3Cc2ccccc2)cc1 [Example 3, 1-benzyl-5-{[(4-tert-butylphenyl)sulfonyl]amino}-3-phenyl-1H-indole-2-carboxylic acid]	82	41	28.7
O=C(O)c1c(-c2ccccc2)c2cc(NS(=O)(=O)c3ccc(OC(F)(F)F)cc3)ccc2n1Cc1ccccc1 [Example 1, 1-benzyl-3-phenyl-5-({[4-(trifluoromethoxy)phenyl]sulfonyl}amino)-1H-indole-2-carboxylic acid]	81	33	8.3
Cn1c(C(=O)N[C@@H](Cc2ccccc2)C(=O)O)c(-c2ccccc2)c2cc(NS(=O)(=O)c3ccc(C(C)(C)C)cc3)ccc21 [Example 11, N-[(5-{[(4-tert-butylphenyl)sulfonyl]amino}-1-methyl-3-phenyl-1H-indol-2-yl)carbonyl]-L-phenylalanine]	77	15	
Cn1c(C(=O)O)c(-c2ccccc2)c2cc(NS(=O)(=O)c3ccc(C(C)(C)C)cc3)ccc21 [Example 6, 5-{[(4-tert-butylphenyl)sulfonyl]amino}-1-methyl-3-phenyl-1H-indole-2-carboxylic acid]	46		
O=C(O)c1c(-c2ccccc2)c2cc(NS(=O)(=O)c3cccc4cccnc34)ccc2n1Cc1ccccc1 [Example 2, 1-benzyl-3-phenyl-5-[(quinolin-8-ylsulfonyl)amino]-1H-indole-2-carboxylic acid]	43	8	
CC(C)C[C@H](NC(=O)c1c(-c2ccccc2)c2cc(NS(=O)(=O)c3ccc(OC(F)(F)F)cc3)ccc2n1C)C(=O)O [Example 8, N-{[1-methyl-3-phenyl-5-({[4-(trifluoromethoxy)phenyl]sulfonyl}amino)-1H-indol-2-yl]carbonyl}-L-leucine]	73	18	
Cn1c(C(=O)N[C@@H](Cc2ccccc2)C(=O)O)c(-c2ccccc2)c2cc(NS(=O)(=O)c3ccc(-c4ccccc4)cc3)ccc21 [Example 9, N-({5-[(1,1′-biphenyl-4-ylsulfonyl)amino]-1-methyl-3-phenyl-1H-indol-2-yl}carbonyl)-L-phenylalanine]	73	8	
Cn1c(C(=O)O)c(-c2ccccc2)c2cc(NS(=O)(=O)c3ccc(-c4ccccc4)cc3)ccc21 [Example 7, 5-[(1,1′-biphenyl-4-ylsulfonyl)amino]-1-methyl-3-phenyl-1H-indole-2-carboxylic acid]	68	11	

The remaining lines, values ahead:

inhibition at 25 µM [1] [%]	inhibition at 10 µM [1] [%]	IC50 [2] [µM]	SMILES
81	20	28.4	CC(C)(C)c1ccc(S(=O)(=O)Nc2ccc3[nH]c(C(=O)O)c(-c4ccccc4)c3c2)cc1 [Example 20, 5-{[(4-tert-butylphenyl)sulfonyl]amino}-3-phenyl-1H-indole-2-carboxylic acid]
50	12		O=C(O)c1[nH]c2ccc(NS(=O)(=O)c3ccc(OC(F)(F)F)cc3)cc2c1-c1ccccc1 [Example 19, 3-phenyl-5-({[4-(trifluoromethoxy)phenyl]sulfonyl}amino)-1H-indole-2-carboxylic acid]
86	29	19.5	O=C(O)c1[nH]c2ccc(NS(=O)(=O)c3ccc(-c4ccccc4)cc3)cc2c1-c1ccccc1 [Example 21, 5-[(1,1′-biphenyl-4-ylsulfonyl)amino]-3-phenyl-1H-indole-2-carboxylic acid]
87	77	28	O=C(O)c1c(-c2ccccc2)c2cc(NS(=O)(=O)c3ccccc3)ccc2n1Cc1ccc(-c2ccccc2)cc1 [Example 14, 1-(1,1′-biphenyl-4-ylmethyl)-3-phenyl-5-[(phenylsulfonyl)amino]-1H-indole-2-carboxylic acid]
89	68		O=C(O)c1c(-c2ccccc2)c2cc(NS(=O)(=O)c3ccccc3)ccc2n1C(c1ccccc1)c1ccccc1 [Example 16, 1-benzhydryl-3-phenyl-5-[(phenylsulfonyl)amino]-1H-indole-2-carboxylic acid]
55	19		O=C(O)c1c(-c2ccc3[nH]ccc3c2)c2cc(NS(=O)(=O)c3ccccc3)ccc2n1Cc1ccccc1 [Example 18, 1-benzyl-5-[(phenylsulfonyl)amino]-1H,1′H-3,5′-biindole-2-carboxylic acid]
64	14		CC(C)C[C@H](NC(=O)c1c(-c2ccccc2)c2cc(NS(=O)(=O)c3ccc(C(C)(C)C)cc3)ccc2n1C)C(=O)O [Example 12, N-[(5-{[(4-tert-butylphenyl)sulfonyl]amino}-1-methyl-3-phenyl-1H-indol-2-yl)carbonyl]-L-leucine]
62	24		CS(=O)(=O)Nc1ccc2c(c1)c(-c1ccccc1)c(C(=O)O)n2Cc1ccc(-c2ccccc2)cc1 [Example 13, 1-(1,1′-biphenyl-4-ylmethyl)-5-[(methylsulfonyl)amino]-3-phenyl-1H-indole-2-carboxylic acid]
36	10		CS(=O)(=O)Nc1ccc2c(c1)c(-c1ccccc1)c(C(=O)O)n2C(c1ccccc1)c1ccccc1 [Example 15, 1-benzhydryl-5-[(methylsulfonyl)amino]-3-phenyl-1H-indole-2-carboxylic acid]
84	43		CC(C)(C)c1ccc(-c2c(C(=O)O)n(Cc3ccccc3)c3ccc(NS(=O)(=O)c4ccc(OC(F)(F)F)cc4)cc23)cc1 [Example 17, 1-Benzyl-3-(4-tert-butylphenyl)-5-({[4-(trifluoromethoxy)phenyl]sulfonyl}amino)-1H-indole-2-carboxylic acid]
